The text below walks through data of publication PMC3764917 (Journal of medicinal chemistry, 2012).

For one series, the target named is T1, FAAH (Rattus norvegicus, UniProt P97612).
T1 sequence (P97612 1-579): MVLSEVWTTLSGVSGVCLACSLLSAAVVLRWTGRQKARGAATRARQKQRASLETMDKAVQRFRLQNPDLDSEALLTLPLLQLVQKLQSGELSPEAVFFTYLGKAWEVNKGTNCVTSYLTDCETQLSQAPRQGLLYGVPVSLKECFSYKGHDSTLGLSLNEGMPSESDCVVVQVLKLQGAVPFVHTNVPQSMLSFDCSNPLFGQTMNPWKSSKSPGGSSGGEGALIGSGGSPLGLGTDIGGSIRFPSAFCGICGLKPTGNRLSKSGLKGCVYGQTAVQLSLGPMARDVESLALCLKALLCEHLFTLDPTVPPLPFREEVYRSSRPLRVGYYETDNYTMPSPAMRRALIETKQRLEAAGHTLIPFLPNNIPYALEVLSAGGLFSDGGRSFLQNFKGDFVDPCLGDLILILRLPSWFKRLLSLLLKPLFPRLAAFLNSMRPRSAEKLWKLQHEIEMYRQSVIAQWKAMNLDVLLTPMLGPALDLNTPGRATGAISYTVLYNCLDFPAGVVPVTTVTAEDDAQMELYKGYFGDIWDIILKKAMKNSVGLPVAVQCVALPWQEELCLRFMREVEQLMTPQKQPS
The series can be described thus: FAAH activity: [3H]anandamide hydrolysis by total rat brain homogenates. It is filed as biochemical.

In the next series the target is T2, ovine COX-1 (Ovis aries, UniProt P05979).
T2 sequence (P05979 25-600): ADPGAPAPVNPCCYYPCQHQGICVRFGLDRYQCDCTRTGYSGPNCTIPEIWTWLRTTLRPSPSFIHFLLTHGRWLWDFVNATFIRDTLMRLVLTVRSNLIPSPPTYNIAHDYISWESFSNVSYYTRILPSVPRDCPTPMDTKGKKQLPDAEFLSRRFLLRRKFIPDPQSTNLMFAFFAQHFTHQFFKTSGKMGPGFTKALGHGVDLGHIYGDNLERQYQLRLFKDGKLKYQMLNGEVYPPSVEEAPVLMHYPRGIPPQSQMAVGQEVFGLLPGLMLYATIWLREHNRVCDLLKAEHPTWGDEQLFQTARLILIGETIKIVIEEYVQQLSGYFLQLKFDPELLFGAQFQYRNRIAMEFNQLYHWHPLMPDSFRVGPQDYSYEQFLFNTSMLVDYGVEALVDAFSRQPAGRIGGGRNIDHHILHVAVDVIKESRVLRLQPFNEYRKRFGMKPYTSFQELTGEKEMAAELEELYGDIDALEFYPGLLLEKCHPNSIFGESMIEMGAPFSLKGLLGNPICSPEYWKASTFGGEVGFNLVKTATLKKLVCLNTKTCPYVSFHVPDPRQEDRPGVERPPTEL
The series can be described thus: COX activity, commercial enzyme immunoassay kit.

For a further series, the target named is T3, human COX-2 (Homo sapiens, UniProt P35354).
T3 sequence (P35354 18-604): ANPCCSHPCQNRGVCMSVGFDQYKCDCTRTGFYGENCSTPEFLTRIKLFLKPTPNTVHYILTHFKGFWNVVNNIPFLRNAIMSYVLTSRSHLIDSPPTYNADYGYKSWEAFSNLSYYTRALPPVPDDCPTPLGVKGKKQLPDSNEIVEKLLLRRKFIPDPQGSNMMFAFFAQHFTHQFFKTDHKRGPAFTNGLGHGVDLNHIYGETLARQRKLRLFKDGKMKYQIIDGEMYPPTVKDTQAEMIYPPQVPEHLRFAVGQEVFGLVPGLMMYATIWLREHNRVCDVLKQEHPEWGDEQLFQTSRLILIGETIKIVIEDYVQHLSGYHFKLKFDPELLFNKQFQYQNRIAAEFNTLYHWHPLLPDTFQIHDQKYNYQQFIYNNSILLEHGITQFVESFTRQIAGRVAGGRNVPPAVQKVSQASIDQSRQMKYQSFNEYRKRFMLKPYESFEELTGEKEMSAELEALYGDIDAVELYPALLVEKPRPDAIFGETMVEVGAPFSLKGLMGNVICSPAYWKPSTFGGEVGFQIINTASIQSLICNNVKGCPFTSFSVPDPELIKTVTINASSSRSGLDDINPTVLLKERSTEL
The series can be described thus: COX activity, commercial enzyme immunoassay kit.

For series [1] the following is noted: humans; cited from earlier work.
The test system of a further series is COX-2. The following applies: oxygen electrode assay, arachidonic acid as substrate; cited from earlier work.

Structures can show the parent of a compound that is named as a salt.

Turning to `CC(C(=O)O)c1ccc2c(c1)[nH]c1ccccc12` (centres unmarked) [Compound 2, 2-(9H-carbazol-2-yl)propanoic acid], the IC50 on FAAH turned out to be 5 µM.

For the compound `COc1ccc(C(=O)n2c3ccc(Cl)cc3c3ccc(C(C)C(=O)O)cc32)cc1` (centres unmarked) [Compound 15e, 2-(6-chloro-9-(4-methoxybenzoyl)-9H-carbazol-2-yl)propanoic acid], at ovine COX-1, the “COX-1 inhibition, result in words” value is listed as “did not inhibit”. The “COX-2 inhibition, result in words” value at human COX-2 is recorded as “did not inhibit”.

On to `CCCCNC(=O)n1c2ccc(Cl)cc2c2ccc(C(C)C(=O)O)cc21` (centres unmarked) [Compound 10c, 2-(9-(butylcarbamoyl)-6-chloro-9H-carbazol-2-yl)propanoic acid], for which the “FAAH inhibition, result in words” value at FAAH is reported as “no inhibition”.

For the compound `CC(=O)n1c2ccc(Cl)cc2c2ccc(C(C)C(=O)O)cc21` (centres unmarked) [Compound 15a, 2-(9-acetyl-6-chloro-9H-carbazol-2-yl)propanoic acid], the “FAAH inhibition, result in words” value on FAAH is recorded as “did not show any inhibitory potency”. Moreover, at ovine COX-1, the “COX-1 inhibition, result in words” value is reported as “did not show any inhibitory potency”. For the same compound, at human COX-2, the “COX-2 inhibition, result in words” value is reported as “did not show any inhibitory potency”.

Regarding `CC(C(=O)O)c1ccc2c3cc(Cl)ccc3n(C(=O)c3cccc(Cl)c3)c2c1` (centres unmarked) [Compound 15f, 2-(6-chloro-9-(3-chlorobenzoyl)-9H-carbazol-2-yl)propanoic acid], the “COX-1 inhibition, result in words” value on ovine COX-1 was “lost”. For the same compound, the “COX-2 inhibition, result in words” value at human COX-2 is “lost”.

Turning to `CCCCCCNC(=O)n1c2ccc(Cl)cc2c2ccc(C(C)C(=O)O)cc21` (centres unmarked) [Compound 10a, 2-(6-chloro-9-(hexylcarbamoyl)-9H-carbazol-2-yl)propanoic acid], the IC50 at FAAH is 3 µM.

For the compound `CC(C(=O)O)c1ccc2c(c1)[nH]c1ccc(Cl)cc12` (centres unmarked) [Compound 1, carprofen], the “ulcerogenic side effects compared to other NSAIDs” value in series [1] is on record as “reduced ulcerogenic side effects”.

As for `CCCCCCOC(=O)n1c2ccc(Cl)cc2c2ccc(C(C)C(=O)O)cc21` (centres unmarked) [Compound 12, 2-(6-chloro-9-((hexyloxy)carbonyl)-9H-carbazol-2-yl)propanoic acid], the “weaker potency against FAAH compared to 10a” value at FAAH (ratio of FAAH IC50 values versus 10a) is reported as 10 fold.

As to `CNC(=O)n1c2ccc(Cl)cc2c2ccc(C(C)C(=O)O)cc21` (centres unmarked) [Compound 10b, 2-[6-chloro-9-(methylcarbamoyl)carbazol-2-yl]propanoic acid], the “FAAH inhibition, result in words” value on FAAH is listed as “no inhibition”.

Turning to `CC(C(=O)O)c1ccc2c3cc(Cl)ccc3n(C(=O)c3ccccc3Cl)c2c1` (centres unmarked) [Compound 15g, 2-(6-chloro-9-(2-chlorobenzoyl)-9H-carbazol-2-yl)propanoic acid], at ovine COX-1, the “COX-1 inhibition, result in words” value is reported as “lost”. The “COX-2 inhibition, result in words” value at human COX-2 was “lost”.

For the compound `CC(C(=O)O)c1ccc2c3cc(Cl)ccc3n(C(=O)c3ccc(Cl)c(Cl)c3)c2c1` (centres unmarked) [Compound 15h, 2-(6-chloro-9-(3,4-dichlorobenzoyl)-9H-carbazol-2-yl)propanoic acid], the “FAAH inhibition, result in words” value on FAAH is given as “total loss of activity”. For the same compound, the “COX-1 inhibition, result in words” value at ovine COX-1 was “total loss of activity”. The “COX-2 inhibition, result in words” value on human COX-2 is “total loss of activity”.

With `CC(C)Cc1ccc(C(C)C(=O)O)cc1` (centres unmarked) [ibuprofen, reference compound], the “FAAH inhibition, result in words” value at FAAH is reported as “very weak”.

`CC(C(=O)Nc1ccccc1)c1ccc2c(c1)[nH]c1ccc(Cl)cc12` (centres unmarked) [Compound 4b, 2-(6-chloro-9H-carbazol-2-yl)-N-phenylpropanamide]: the “COX-1 inhibition, result in words” value on ovine COX-1 is given as “lack of activity”. Further, the “COX-2 inhibition, result in words” value on human COX-2 is “lack of activity”.

Take `CC(C(=O)NCCO)c1ccc2c(c1)[nH]c1ccc(Cl)cc12` (centres unmarked) [Compound 4a, 2-(6-chloro-9H-carbazol-2-yl)-N-(2-hydroxyethyl)propanamide]: on ovine COX-1, the “COX-1 inhibition, result in words” value is listed as “lack of activity”. Besides, on human COX-2, the “COX-2 inhibition, result in words” value was “lack of activity”.

As to `CC(C(=O)O)c1ccc2c3cc(Cl)ccc3n(Cc3ccccc3)c2c1` (centres unmarked) [Compound 6b, 2-(9-benzyl-6-chloro-9H-carbazol-2-yl)propanoic acid], the “increase in FAAH potency compared to 1” value on FAAH (ratio of FAAH IC50 values versus compound 1) stood at 3 fold.

Turning to `COc1ccccc1Cn1c2ccc(Cl)cc2c2ccc(C(C)C(=O)O)cc21` (centres unmarked) [Compound 6g, 2-(6-chloro-9-(2-methoxybenzyl)-9H-carbazol-2-yl)propanoic acid], the “FAAH activity at 30 μM, result in words” value on FAAH (30 μM) is given as “no activity”.

On FAAH, `CC(C(=O)O)c1ccc2c3cc(Cl)ccc3n(C(=O)c3c[nH]cn3)c2c1` (centres unmarked) [Compound 15j, 2-(6-chloro-9-(1H-imidazole-4-carbonyl)-9H-carbazol-2-yl)propanoic acid hydrochloride] had an IC50 of 6 µM. The “COX-2 inhibition, result in words” value at human COX-2 was “no relevant inhibition”.

For `COC(=O)C(C)c1ccc2c(c1)[nH]c1ccc(Cl)cc12` (centres unmarked) [Compound 3, Methyl 2-(6-chloro-9H-carbazol-2-yl)propanoate], the “COX-1 inhibition, result in words” value at ovine COX-1 is listed as “lack of activity”. The “COX-2 inhibition, result in words” value on human COX-2 is on record as “lack of activity”.

On to `CC(C(=O)O)c1ccc2c3cc(Cl)ccc3n(C(=O)c3ccc(F)cc3)c2c1` (centres unmarked) [Compound 15d, 2-(6-chloro-9-(4-fluorobenzoyl)-9H-carbazol-2-yl)propanoic acid], for which the “COX-1 inhibition, result in words” value on ovine COX-1 is recorded as “did not inhibit”. The “COX-2 inhibition, result in words” value on human COX-2 is “did not inhibit”.

Regarding `Cc1cccnc1NC(=O)C(C)c1ccc(CC(C)C)cc1` (centres unmarked) [ibu-am5, N-(3-methylpyridin-2-yl)-2-(4-isobutylphenyl)-propionamide], the “COX-2 inhibition, result in words” value in the series on COX-2 was “inactive”.

As for `CC(C(=O)O)c1ccc2c3cc(Cl)ccc3n(C(=O)c3cscn3)c2c1` (centres unmarked) [Compound 15k, 2-(6-chloro-9-(thiazole-4-carbonyl)-9H-carbazol-2-yl)propanoic acid], at FAAH, the “FAAH inhibition, result in words” value is on record as “detrimental”. Moreover, the “COX-1 inhibition, result in words” value on ovine COX-1 was “detrimental”. Besides, the “COX-2 inhibition, result in words” value at human COX-2 is “detrimental”.

What is called IC50 is the concentration needed to halve the response being measured.
